Experimental data published in US20140171357A1, “VANCOMYCIN DERIVATIVES” (Seachald Pharmaceuticals, Inc., priority 2011, published 2014).
Converted amounts (≈) assume the structure as drawn.

Experiments:
[1] = test system: β-hemolytic streptococci (23); assay: MIC broth microdilution, β-hemolytic streptococci; settings: for MIC 50% / MIC 90%: β-hemolytic streptococci (23), MHB + lysed horse blood
[2] = test system: vancomycin-susceptible E. faecium (21); assay: MIC broth microdilution, vancomycin-susceptible E. faecium; settings: E. faecium, vancomycin-susceptible (21)
[3] = test system: Staphylococcus epidermidis (43 strains); assay: MIC broth microdilution, S. epidermidis; settings: S. epidermidis (43)
[4] = test system: vancomycin-resistant S. aureus (VRSA, 6); assay: MIC broth microdilution, VRSA
[5] = test system: VanB vancomycin-resistant E. faecalis (12); assay: MIC broth microdilution, VanB E. faecalis; settings: E. faecalis, VanB (12)
S. pneumoniae (22) = assay: MIC broth microdilution, S. pneumoniae; settings: S. pneumoniae (22); MHB + lysed horse blood
[6] = test system: methicillin-resistant S. aureus (MRSA, 22); assay: MIC broth microdilution, MRSA; settings: MRSA (22)
[7] = test system: heterogeneous VISA (hVISA, 10); assay: MIC broth microdilution, hVISA
[8] = test system: VanB vancomycin-resistant E. faecium (10); assay: MIC broth microdilution, VanB E. faecium; settings: E. faecium, VanB (10)
[9] = test system: VanA vancomycin-resistant E. faecalis (11); assay: MIC broth microdilution, VanA E. faecalis; settings: E. faecalis, VanA (11)
[10] = test system: VanA vancomycin-resistant E. faecium (10); assay: MIC broth microdilution, VanA E. faecium; settings: E. faecium, VanA (10)
VanC enterococci (22) = assay: MIC broth microdilution, vanC-carrying enterococci; settings: VanC enterococci (22)
[11] = test system: vancomycin-susceptible E. faecalis (23); assay: MIC broth microdilution, vancomycin-susceptible E. faecalis; settings: E. faecalis, vancomycin-susceptible (23)
[12] = test system: methicillin-susceptible S. aureus (MSSA, 22); assay: MIC broth microdilution, MSSA; settings: MSSA (22)
[13] = test system: vancomycin-intermediate S. aureus (VISA, 5); assay: MIC broth microdilution, VISA
[14] = test system: Staphylococcus aureus (65 strains); assay: MIC broth microdilution, S. aureus all isolates; settings: S. aureus (65), all resistance subsets
S. aureus ATCC 25923 = assay: Neutropenic murine thigh infection model; settings: for AUCc-t (AUC difference between control and treated animals): 24 h time kill
[15] = 1 mg/kg single intraperitoneal dose
[16] = 4 mg/kg single intraperitoneal dose
[17] = 16 mg/kg single intraperitoneal dose

Row | Compound | MIC 50% [1] [µg/mL] | MIC 90% [1] [µg/mL] | MIC 50% [2] [µg/mL] | MIC 90% [2] [µg/mL] | MIC 50% [3] [µg/mL] | MIC 90% [3] [µg/mL] | MIC 50% [4] [µg/mL] | MIC 50% [5] [µg/mL] | MIC 90% [5] [µg/mL] | MIC 50% (S. pneumoniae (22)) [µg/mL] | MIC 90% (S. pneumoniae (22)) [µg/mL] | MIC 50% [6] [µg/mL] | MIC 90% [6] [µg/mL] | MIC 50% [7] [µg/mL] | MIC 90% [7] [µg/mL] | MIC 50% [8] [µg/mL] | MIC 90% [8] [µg/mL] | MIC 50% [9] [µg/mL] | MIC 90% [9] [µg/mL] | MIC 50% [10] [µg/mL] | other results
1 | CNC(CC(C)C)C(=O)NC1C(=O)NC(CC(N)=O)C(=O)NC2C(=O)NC3C(=O)NC(C(=O)NC(C(=O)NCCOCCOCCN(C)C)c4cc(O)cc(O)c4-c4cc3ccc4O)C(O)c3ccc(c(Cl)c3)Oc3cc2cc(c3OC2OC(CO)C(O)C(O)C2OC2CC(C)(NCc3ccc(-c4ccc(Cl)cc4)cc3)C(O)C(C)O2)Oc2ccc(cc2Cl)C1O (centres unmarked) [Compound 10] | 0.03 | 0.12 | 0.06 (≈ 0.0332 µM) | 0.06 (≈ 0.0332 µM) | 0.03 (≈ 0.0166 µM) | 0.06 (≈ 0.0332 µM) | 4 (≈ 2.21 µM) | 0.12 (≈ 0.0664 µM) | 0.25 (≈ 0.138 µM) | 0.03 | 0.06 | 0.06 (≈ 0.0332 µM) | 0.12 (≈ 0.0664 µM) | 0.12 (≈ 0.0664 µM) | 0.12 (≈ 0.0664 µM) | 0.06 (≈ 0.0332 µM) | 0.06 (≈ 0.0332 µM) | 4 (≈ 2.21 µM) | 8 (≈ 4.42 µM) | 1 (≈ 0.553 µM) | fold more potent than teicoplanin and daptomycin ([1]; β-hemolytic streptococci): two- to four; fold more potent than vancomycin ([1]; β-hemolytic streptococci): four- to eight; MIC 90% [10]: 2 µg/mL (≈ 1.11 µM); MIC 50% (VanC enterococci (22)): 0.12 µg/mL (≈ 0.0664 µM); MIC 90% (VanC enterococci (22)): 0.25 µg/mL (≈ 0.138 µM); MIC 50% [11]: 0.12 µg/mL (≈ 0.0664 µM); MIC 90% [11]: 0.12 µg/mL (≈ 0.0664 µM); MIC 50% [12]: 0.06 µg/mL (≈ 0.0332 µM); MIC 90% [12]: 0.06 µg/mL (≈ 0.0332 µM); MIC 50% [13]: 0.25 µg/mL (≈ 0.138 µM); MIC 50% [14]: 0.06 µg/mL (≈ 0.0332 µM); MIC 90% [14]: 0.25 µg/mL (≈ 0.138 µM); Max Kill (maximum decrease from initial infection level) (S. aureus ATCC 25923; [15]): 0.43 Log10 CFU/thigh; AUCc-t (AUC difference between control and treated animals) (S. aureus ATCC 25923; [15]): 10.7 (Log10 CFU/thigh)/hr; Max Kill (maximum decrease from initial infection level) (S. aureus ATCC 25923; [16]): −0.06 Log10 CFU/thigh; AUCc-t (AUC difference between control and treated animals) (S. aureus ATCC 25923; [16]): 22.4 (Log10 CFU/thigh)/hr; Max Kill (maximum decrease from initial infection level) (S. aureus ATCC 25923; [17]): −0.02 Log10 CFU/thigh; AUCc-t (AUC difference between control and treated animals) (S. aureus ATCC 25923; [17]): 25.6 (Log10 CFU/thigh)/hr
2 | CNC(CC(C)C)C(=O)NC1C(=O)NC(CC(N)=O)C(=O)NC2C(=O)NC3C(=O)NC(C(=O)NC(C(=O)O)c4cc(O)c(CNCCOCCOCCN)c(O)c4-c4cc3ccc4O)C(O)c3ccc(c(Cl)c3)Oc3cc2cc(c3OC2OC(CO)C(O)C(O)C2OC2CC(C)(NCc3ccc(-c4ccc(Cl)cc4)cc3)C(O)C(C)O2)Oc2ccc(cc2Cl)C1O (centres unmarked) [Compound 11] | 0.06 | 0.12 | 0.06 (≈ 0.0331 µM) | 0.12 (≈ 0.0663 µM) | 0.06 (≈ 0.0331 µM) | 0.06 (≈ 0.0331 µM) | 4 (≈ 2.21 µM) | 0.25 (≈ 0.138 µM) | 0.25 (≈ 0.138 µM) | 0.06 | 0.06 | 0.12 (≈ 0.0663 µM) | 0.12 (≈ 0.0663 µM) | 0.12 (≈ 0.0663 µM) | 0.12 (≈ 0.0663 µM) | 0.06 (≈ 0.0331 µM) | 0.12 (≈ 0.0663 µM) | 4 (≈ 2.21 µM) | 8 (≈ 4.42 µM) | 2 (≈ 1.1 µM) | MIC 90% [10]: 4 µg/mL (≈ 2.21 µM); MIC 50% (VanC enterococci (22)): 0.25 µg/mL (≈ 0.138 µM); MIC 90% (VanC enterococci (22)): 0.5 µg/mL (≈ 0.276 µM); MIC 50% [11]: 0.25 µg/mL (≈ 0.138 µM); MIC 90% [11]: 0.25 µg/mL (≈ 0.138 µM); MIC 50% [12]: 0.12 µg/mL (≈ 0.0663 µM); MIC 90% [12]: 0.12 µg/mL (≈ 0.0663 µM); MIC 50% [13]: 0.25 µg/mL (≈ 0.138 µM); MIC 50% [14]: 0.12 µg/mL (≈ 0.0663 µM); MIC 90% [14]: 0.5 µg/mL (≈ 0.276 µM); Max Kill (maximum decrease from initial infection level) (S. aureus ATCC 25923; [15]): 0.59 Log10 CFU/thigh; AUCc-t (AUC difference between control and treated animals) (S. aureus ATCC 25923; [15]): 12.9 (Log10 CFU/thigh)/hr; Max Kill (maximum decrease from initial infection level) (S. aureus ATCC 25923; [16]): 0.46 Log10 CFU/thigh; AUCc-t (AUC difference between control and treated animals) (S. aureus ATCC 25923; [16]): 10.8 (Log10 CFU/thigh)/hr; Max Kill (maximum decrease from initial infection level) (S. aureus ATCC 25923; [17]): −0.39 Log10 CFU/thigh; AUCc-t (AUC difference between control and treated animals) (S. aureus ATCC 25923; [17]): 34.7 (Log10 CFU/thigh)/hr
3 | CNC(CC(C)C)C(=O)NC1C(=O)NC(CC(N)=O)C(=O)NC2C(=O)NC3C(=O)NC(C(=O)NC(C(=O)O)c4cc(O)c(CNCCOCCOCCN(C)C)c(O)c4-c4cc3ccc4O)C(O)c3ccc(c(Cl)c3)Oc3cc2cc(c3OC2OC(CO)C(O)C(O)C2OC2CC(C)(NCc3ccc(-c4ccc(Cl)cc4)cc3)C(O)C(C)O2)Oc2ccc(cc2Cl)C1O (centres unmarked) [Compound 12] | 0.06 | 0.06 | 0.12 (≈ 0.0653 µM) | 0.12 (≈ 0.0653 µM) | 0.06 (≈ 0.0326 µM) | 0.12 (≈ 0.0653 µM) | 8 (≈ 4.35 µM) | 0.25 (≈ 0.136 µM) | 0.25 (≈ 0.136 µM) | 0.06 | 0.06 | 0.12 (≈ 0.0653 µM) | 0.12 (≈ 0.0653 µM) | 0.12 (≈ 0.0653 µM) | 0.12 (≈ 0.0653 µM) | 0.12 (≈ 0.0653 µM) | 0.12 (≈ 0.0653 µM) | 8 (≈ 4.35 µM) | 16 (≈ 8.7 µM) | 2 (≈ 1.09 µM) | MIC 90% [10]: 4 µg/mL (≈ 2.18 µM); MIC 50% (VanC enterococci (22)): 0.25 µg/mL (≈ 0.136 µM); MIC 90% (VanC enterococci (22)): 0.5 µg/mL (≈ 0.272 µM); MIC 50% [11]: 0.25 µg/mL (≈ 0.136 µM); MIC 90% [11]: 0.25 µg/mL (≈ 0.136 µM); MIC 50% [12]: 0.12 µg/mL (≈ 0.0653 µM); MIC 90% [12]: 0.12 µg/mL (≈ 0.0653 µM); MIC 50% [13]: 0.25 µg/mL (≈ 0.136 µM); MIC 50% [14]: 0.12 µg/mL (≈ 0.0653 µM); MIC 90% [14]: 0.5 µg/mL (≈ 0.272 µM); Max Kill (maximum decrease from initial infection level) (S. aureus ATCC 25923; [15]): 1.1 Log10 CFU/thigh; AUCc-t (AUC difference between control and treated animals) (S. aureus ATCC 25923; [15]): 6.1 (Log10 CFU/thigh)/hr; Max Kill (maximum decrease from initial infection level) (S. aureus ATCC 25923; [16]): −0.03 Log10 CFU/thigh; AUCc-t (AUC difference between control and treated animals) (S. aureus ATCC 25923; [16]): 17.6 (Log10 CFU/thigh)/hr; Max Kill (maximum decrease from initial infection level) (S. aureus ATCC 25923; [17]): 0.0005 Log10 CFU/thigh; AUCc-t (AUC difference between control and treated animals) (S. aureus ATCC 25923; [17]): 29.3 (Log10 CFU/thigh)/hr
4 | CNC(CC(C)C)C(=O)NC1C(=O)NC(CC(N)=O)C(=O)NC2C(=O)NC3C(=O)NC(C(=O)NC(C(=O)O)c4cc(O)c(CNCCOCCOCC[N+](C)(C)C)c(O)c4-c4cc3ccc4O)C(O)c3ccc(c(Cl)c3)Oc3cc2cc(c3OC2OC(CO)C(O)C(O)C2OC2CC(C)(NCc3ccc(-c4ccc(Cl)cc4)cc3)C(O)C(C)O2)Oc2ccc(cc2Cl)C1O (centres unmarked) [Compound 13] | 0.06 | 0.06 | 0.12 | 0.12 | 0.12 | 0.12 | 8 | 0.25 | 0.5 | 0.06 | 0.12 | 0.12 | 0.12 | 0.12 | 0.12 | 0.12 | 0.12 | 8 | 16 | 2 | MIC 90% [10]: 4 µg/mL; MIC 50% (VanC enterococci (22)): 0.25 µg/mL; MIC 90% (VanC enterococci (22)): 1 µg/mL; MIC 50% [11]: 0.25 µg/mL; MIC 90% [11]: 0.25 µg/mL; MIC 50% [12]: 0.12 µg/mL; MIC 90% [12]: 0.25 µg/mL; MIC 50% [13]: 0.5 µg/mL; MIC 50% [14]: 0.12 µg/mL; MIC 90% [14]: 0.5 µg/mL; Max Kill (maximum decrease from initial infection level) (S. aureus ATCC 25923; [15]): 0.9 Log10 CFU/thigh; AUCc-t (AUC difference between control and treated animals) (S. aureus ATCC 25923; [15]): 12.6 (Log10 CFU/thigh)/hr; Max Kill (maximum decrease from initial infection level) (S. aureus ATCC 25923; [16]): 0.28 Log10 CFU/thigh; AUCc-t (AUC difference between control and treated animals) (S. aureus ATCC 25923; [16]): 20.6 (Log10 CFU/thigh)/hr; Max Kill (maximum decrease from initial infection level) (S. aureus ATCC 25923; [17]): 0.02 Log10 CFU/thigh; AUCc-t (AUC difference between control and treated animals) (S. aureus ATCC 25923; [17]): 29.5 (Log10 CFU/thigh)/hr
